Results as given in PubChem BioAssay AID248 (DTP/NCI, 2004).
Toxic doses and inconclusive results are not listed. Square brackets hold non-standard residues; d marks the D form. Peptide text beside a SMILES is read from it. * marks the point of attachment. ξ: configuration not given here. Tos = Cc1ccc(S(=O)(=O)*)cc1; ξY = NC(Cc1ccc(O)cc1)C(=O)O

System: L1210 leukemia ip in BDF1 mice, survival T/C
Assay: NCI In Vivo Anticancer Drug Screen. Data for tumor model L1210 Leukemia (intraperitoneal) in B6D2F1 (BDF1) mice
Details: endpoint: mean survival time, higher = longer survival
Summary of the method: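 Transplantable tumor model; survival measured in treated vs vehicle control mice. Value = treated/control.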

[1] = dose: 100.0 mg/kg/injection, schedule: Q01DX009 (ip), vehicle: saline
[2] = dose: 200.0 mg/kg/injection, schedule: Q01DX009 (ip), vehicle: saline
[3] = dose: 100.0 mg/kg/injection, schedule: Q04DX002 (ip), vehicle: saline with Tween-80
[4] = dose: 200.0 mg/kg/injection, schedule: Q04DX002 (ip), vehicle: saline with Tween-80
[5] = dose: 400.0 mg/kg/injection, schedule: Q04DX002 (ip), vehicle: saline with Tween-80
[6] = dose: 100.0 mg/kg/injection, schedule: Q04DX003 (ip), vehicle: Klucel (hydroxypropylcellulose) (HPC)
[7] = dose: 200.0 mg/kg/injection, schedule: Q04DX003 (ip), vehicle: Klucel (hydroxypropylcellulose) (HPC)
[8] = dose: 400.0 mg/kg/injection, schedule: Q04DX003 (ip), vehicle: Klucel (hydroxypropylcellulose) (HPC)
[9] = dose: 100.0 mg/kg/injection, schedule: Q04DX003 (ip), vehicle: saline
[10] = dose: 200.0 mg/kg/injection, schedule: Q04DX003 (ip), vehicle: saline
[11] = dose: 100.0 mg/kg/injection, schedule: Q01DX009 (ip), vehicle: saline with Tween-80
[12] = dose: 200.0 mg/kg/injection, schedule: Q01DX009 (ip), vehicle: saline with Tween-80
[13] = dose: 400.0 mg/kg/injection, schedule: Q01DX009 (ip), vehicle: saline with Tween-80

Which T/C (dose: 75.0 mg/kg/injection, schedule: Q01DX001 (ip), vehicle: carboxymethylcellulose (CMC)) does the source give for `CCOc1ccc(N=O)c(O)c1` here?
Its T/C is 101 % of control.

And the T/C (dose: 150.0 mg/kg/injection, schedule: Q01DX001 (ip), vehicle: carboxymethylcellulose (CMC))?
Its T/C is 90 % of control.

Which T/C [1] does the source give for `CC(=NC(Cc1ccccc1)C(=O)O)NC(Cc1ccccc1)C(=O)O` (configuration not stated) here?
The T/C was 106 % of control.

And the T/C [2]?
The T/C was 101 % of control.

What about the T/C (dose: 400.0 mg/kg/injection, schedule: Q01DX009 (ip), vehicle: saline) of the same molecule?
The T/C was 100 % of control.

How did the T/C (dose: 50.0 mg/kg/injection, schedule: Q01DX001 (ip), vehicle: saline) turn out when `N#CCCN/N=C\c1ccc2c(c1)OCO2` was run?
Its T/C is 95 % of control.

And the T/C (dose: 100.0 mg/kg/injection, schedule: Q01DX001 (ip), vehicle: saline)?
The T/C was 97 % of control.

And the T/C (dose: 200.0 mg/kg/injection, schedule: Q01DX001 (ip), vehicle: saline)?
The T/C was 95 % of control.

What about the T/C (dose: 400.0 mg/kg/injection, schedule: Q01DX001 (ip), vehicle: saline) of the same molecule?
The T/C was 95 % of control.

Which T/C [3] does the source give for `CSc1ccc(NC(=O)Nc2ccc([N+](=O)[O-])cc2C)cc1` here?
The T/C was 98 % of control.

And the T/C [4]?
Its T/C is 95 % of control.

And the T/C [5]?
The T/C was 91 % of control.

How did the T/C (dose: 100.0 mg/kg/injection, schedule: Q01DX009 (sc), vehicle: olive oil, sesame oil, peanut oil) turn out when `CCCCCCCCCCCCCCCCCCNC(=O)Nc1ccc(C)cc1` was run?
Its T/C is 112 % of control.

And the T/C (dose: 100.0 mg/kg/injection, schedule: Q04DX003 (sc), vehicle: olive oil, sesame oil, peanut oil)?
The T/C was 114 % of control.

And the T/C (dose: 200.0 mg/kg/injection, schedule: Q01DX009 (sc), vehicle: olive oil, sesame oil, peanut oil)?
The T/C was 106 % of control.

And the T/C (dose: 200.0 mg/kg/injection, schedule: Q04DX003 (sc), vehicle: olive oil, sesame oil, peanut oil)?
Its T/C is 104 % of control.

And the T/C (dose: 400.0 mg/kg/injection, schedule: Q01DX009 (sc), vehicle: olive oil, sesame oil, peanut oil)?
Its T/C is 106 % of control.

What about the T/C (dose: 400.0 mg/kg/injection, schedule: Q04DX003 (sc), vehicle: olive oil, sesame oil, peanut oil) of the same molecule?
Its T/C is 98 % of control.

Which T/C (dose: 75.0 mg/kg/injection, schedule: Q01DX001 (ip), vehicle: saline) does the source give for `O=[As](O)(c1cccc(Cl)c1)c1cccc(Cl)c1` here?
Its T/C is 105 % of control.

`Cc1ncc(CO)c(Nc2ccccc2)n1` was tested. Which T/C (dose: 100.0 mg/kg/injection, schedule: Q01DX001 (ip), vehicle: Klucel (hydroxypropylcellulose) (HPC)) did it give?
The T/C was 90 % of control.

And the T/C (dose: 200.0 mg/kg/injection, schedule: Q01DX001 (ip), vehicle: Klucel (hydroxypropylcellulose) (HPC))?
The T/C was 108 % of control.

And the T/C (dose: 400.0 mg/kg/injection, schedule: Q01DX001 (ip), vehicle: Klucel (hydroxypropylcellulose) (HPC))?
Its T/C is 96 % of control.

What does the source list for `COC(=O)C(Cc1ccc(O)cc1)NC(=O)CNS(=O)(=O)c1ccc(C)cc1` (stereo not drawn) (Tos-Gly-[ξY]-OMe)?
T/C (dose: 100.0 mg/kg/injection, schedule: Q04DX003 (ip), vehicle: other): 105 % of control; T/C (dose: 200.0 mg/kg/injection, schedule: Q04DX003 (ip), vehicle: other): 94 % of control; T/C (dose: 400.0 mg/kg/injection, schedule: Q04DX003 (ip), vehicle: other): 104 % of control

With `Cc1cc(=O)n(Cc2ccccc2)c(=O)[nH]1` as the molecule, how does the T/C [6] read?
Its T/C is 98 % of control.

What about the T/C [7] of the same molecule?
Its T/C is 98 % of control.

And the T/C [8]?
Its T/C is 93 % of control.

How did the T/C (dose: 50.0 mg/kg/injection, schedule: Q01DX009 (ip), vehicle: saline) turn out when `CC[As](=O)(O)CC` was run?
The T/C was 97 % of control.

And the T/C [1]?
Its T/C is 120 % of control.

And the T/C [9]?
The T/C was 101 % of control.

What about the T/C [2] of the same molecule?
Its T/C is 105 % of control.

And the T/C [10]?
The T/C was 107 % of control.

Which results are given for `O=C(O)CC(O)C(F)(F)C(F)(F)C(F)(F)F` (configuration not stated)?
T/C [1]: 90 % of control; T/C [9]: 100 % of control; T/C [2]: 86 % of control; T/C [10]: 97 % of control; T/C (dose: 400.0 mg/kg/injection, schedule: Q04DX003 (ip), vehicle: saline): 87 % of control

How did the T/C [3] turn out when `CC(=O)OC1CC23CCC(=O)C2(CC3)C1` (configuration not stated) was run?
The T/C was 99 % of control.

And the T/C [4]?
Its T/C is 111 % of control.

What about the T/C [5] of the same molecule?
Its T/C is 99 % of control.

`CCCCC(O)(C#CC(O)(CC)CCCC)CC` (configuration not stated) was tested. Which T/C (dose: 100.0 mg/kg/injection, schedule: Q01DX001 (ip), vehicle: other) did it give?
Its T/C is 103 % of control.

What about the T/C (dose: 200.0 mg/kg/injection, schedule: Q01DX001 (ip), vehicle: other) of the same molecule?
The T/C was 105 % of control.

And the T/C (dose: 400.0 mg/kg/injection, schedule: Q01DX001 (ip), vehicle: other)?
Its T/C is 102 % of control.

How did the T/C (dose: 100.0 mg/kg/injection, schedule: Q01DX009 (ip), vehicle: Klucel (hydroxypropylcellulose) (HPC)) turn out when `O=C(O)CCC(NC(=O)c1ccc(Cc2ccc(NC(=O)OCc3ccccc3)cc2)cc1)C(=O)O` (configuration not stated) was run?
The T/C was 96 % of control.

And the T/C [6]?
The T/C was 97 % of control.

What about the T/C (dose: 200.0 mg/kg/injection, schedule: Q01DX009 (ip), vehicle: Klucel (hydroxypropylcellulose) (HPC)) of the same molecule?
Its T/C is 95 % of control.

And the T/C [7]?
Its T/C is 94 % of control.

And the T/C (dose: 400.0 mg/kg/injection, schedule: Q01DX009 (ip), vehicle: Klucel (hydroxypropylcellulose) (HPC))?
The T/C was 93 % of control.

And the T/C [8]?
The T/C was 103 % of control.

What does the source list for `COCCNC(=O)Nc1cccc2c1CCCC2`?
T/C [11]: 97 % of control; T/C [12]: 99 % of control; T/C [13]: 103 % of control

What does the source list for `COc1cc(CCNC(=O)Cc2ccc(OCc3ccccc3)c(OC)c2)ccc1OCc1ccccc1`?
T/C [11]: 89 % of control; T/C [12]: 101 % of control; T/C [13]: 94 % of control

What does the source list for `O=C(Nc1ccc(NC(=O)Nc2cccc(C3=NCCN3)c2)cc1)Nc1ccc(C2=NCCN2)cc1`?
T/C (dose: 1.0 mg/kg/injection, schedule: Q01DX Z (ip), vehicle: carboxymethylcellulose (CMC)): 88 % of control; T/C (dose: 2.0 mg/kg/injection, schedule: Q01DX Z (ip), vehicle: carboxymethylcellulose (CMC)): 102 % of control; T/C (dose: 4.0 mg/kg/injection, schedule: Q01DX Z (ip), vehicle: carboxymethylcellulose (CMC)): 95 % of control; T/C (dose: 8.0 mg/kg/injection, schedule: Q01DX Z (ip), vehicle: carboxymethylcellulose (CMC)): 107 % of control; T/C (dose: 14.0 mg/kg/injection, schedule: Q01DX Z (oral), vehicle: carboxymethylcellulose (CMC)): 108 % of control; T/C (dose: 18.0 mg/kg/injection, schedule: Q01DX Z (ip), vehicle: carboxymethylcellulose (CMC)): 202 % of control; T/C (dose: 21.0 mg/kg/injection, schedule: Q01DX Z (oral), vehicle: carboxymethylcellulose (CMC)): 109 % of control; T/C (dose: 32.0 mg/kg/injection, schedule: Q01DX Z (oral), vehicle: carboxymethylcellulose (CMC)): 103 % of control; T/C (dose: 36.0 mg/kg/injection, schedule: Q01DX Z (ip), vehicle: carboxymethylcellulose (CMC)): 116 % of control; T/C (dose: 48.0 mg/kg/injection, schedule: Q01DX Z (oral), vehicle: carboxymethylcellulose (CMC)): 103 % of control; T/C (dose: 62.0 mg/kg/injection, schedule: Q01DX Z (ip), vehicle: saline): 164 % of control; T/C (dose: 72.0 mg/kg/injection, schedule: Q01DX Z (oral), vehicle: carboxymethylcellulose (CMC)): 122 % of control; T/C (dose: 125.0 mg/kg/injection, schedule: Q01DX Z (ip), vehicle: saline): 91 % of control

What does the source list for `NC1C2C3C=CC(C3)C12` (configuration not stated)?
T/C [1]: 107 % of control; T/C [2]: 100 % of control

What does the source list for `CC(C(Nc1ccc(C(=O)O)cc1)C(F)(F)C(F)(F)C(F)(F)F)[N+](=O)[O-]` (configuration not stated)?
T/C [6]: 88 % of control; T/C [7]: 89 % of control; T/C [8]: 98 % of control

For `CC(Cl)(S(=O)c1ccccc1)C1(O)CCCCC1` (configuration not stated), which T/C (dose: 100.0 mg/kg/injection, schedule: Q03DX002 (ip), vehicle: saline with Tween-80) is on record?
The T/C was 113 % of control.

What about the T/C (dose: 200.0 mg/kg/injection, schedule: Q03DX002 (ip), vehicle: saline with Tween-80) of the same molecule?
The T/C was 102 % of control.

What about the T/C (dose: 400.0 mg/kg/injection, schedule: Q03DX002 (ip), vehicle: saline with Tween-80) of the same molecule?
Its T/C is 105 % of control.
